We go through 1 cell line from the supplement of paper PMC10307832.

Holding throughout (assay): relative viability (nuclei count vs DMSO), 5 days (fraction); higher = more cells survive
Compound in the assay “Fedratinib + Trametinib”: Cc1cnc(Nc2ccc(OCCN3CCCC3)cc2)nc1Nc1cccc(S(=O)(=O)NC(C)(C)C)c1 [Fedratinib] + CC(=O)Nc1cccc(-n2c(=O)n(C3CC3)c(=O)c3c(Nc4ccc(I)cc4F)n(C)c(=O)c(C)c32)c1 [Trametinib] (partner 0.02 µM)
In short, it runs like this: (§1)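 Lung cancer cell lines in 1536-well plates got either a single drug or a fixed anchor-drug dose together with five library-drug doses (not always all listed) in √10 steps, by pin tool, on the day after seeding. Nuclei were counted after 5 days, and relative viability is the treated-to-vehicle ratio of nuclei counts. Values are medians of duplicate plates.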

Compound in the assay “Fedratinib + Olaparib”: Cc1cnc(Nc2ccc(OCCN3CCCC3)cc2)nc1Nc1cccc(S(=O)(=O)NC(C)(C)C)c1 [Fedratinib] + O=C(c1cc(Cc2n[nH]c(=O)c3ccccc23)ccc1F)N1CCN(C(=O)C2CC2)CC1 [Olaparib] (partner 8 µM)
In short, it runs like this:
as §1

Compound in the assay “Fedratinib + Palbociclib”: Cc1cnc(Nc2ccc(OCCN3CCCC3)cc2)nc1Nc1cccc(S(=O)(=O)NC(C)(C)C)c1 [Fedratinib] + CC(=O)c1c(C)c2cnc(Nc3ccc(N4CCNCC4)cn3)nc2n(C2CCCC2)c1=O [Palbociclib] (partner 0.5 µM)
In short, it runs like this: as §1

Compound in the assay “GW-2580 + Luminespib”: COC1=CC=C(C=C1)COC2=C(C=C(C=C2)CC3=CN=C(N=C3N)N)OC [GW-2580] + CCNC(=O)c1noc(-c2cc(C(C)C)c(O)cc2O)c1-c1ccc(CN2CCOCC2)cc1 [Luminespib] (partner 0.01 µM)
In short, it runs like this:
as §1

Compound in the assay “GW-2580 + Dasatinib”: COC1=CC=C(C=C1)COC2=C(C=C(C=C2)CC3=CN=C(N=C3N)N)OC [GW-2580] + Cc1nc(Nc2ncc(C(=O)Nc3c(C)cccc3Cl)s2)cc(N2CCN(CCO)CC2)n1 [Dasatinib] (partner 0.075 µM)
In short, it runs like this:
as §1

Compound in the assay “Fedratinib + Phenformin”: Cc1cnc(Nc2ccc(OCCN3CCCC3)cc2)nc1Nc1cccc(S(=O)(=O)NC(C)(C)C)c1 [Fedratinib] + N=C(N)NC(=N)NCCc1ccccc1 [Phenformin] (partner 250 µM)
In short, it runs like this: as §1

As for UMC-11, the relative viability turned out to be 0.625 with Fedratinib + Trametinib (first compound 0.1 µM); 0.476 with Fedratinib + Trametinib (first compound 0.3162 µM); 0.52 in the assay with Fedratinib + Trametinib (first compound 1 µM); 0.3 with Fedratinib + Olaparib (first compound 0.1 µM); 0.33 with Fedratinib + Olaparib (first compound 0.3162 µM); 0.23 in the assay with Fedratinib + Olaparib (first compound 1 µM). Further, the relative viability in the assay with Fedratinib + Palbociclib (first compound 0.1 µM) worked out at 0.345; with Fedratinib + Palbociclib (first compound 0.3162 µM) it was 0.311; in the assay with Fedratinib + Palbociclib (first compound 1 µM) it was 0.301; in the assay with GW-2580 + Luminespib (first compound 0.08 µM) it was 0.992; with GW-2580 + Luminespib (first compound 0.8 µM), 1.1; with GW-2580 + Luminespib (first compound 2.53 µM), 1.12. Also, the relative viability turned out to be 1.16 with GW-2580 + Luminespib (first compound 8 µM); 0.572 in the assay with GW-2580 + Dasatinib (first compound 0.08 µM); 0.508 in the assay with GW-2580 + Dasatinib (first compound 0.8 µM); 0.441 in the assay with GW-2580 + Dasatinib (first compound 2.53 µM); 0.62 in the assay with GW-2580 + Dasatinib (first compound 8 µM); 0.338 in the assay with Fedratinib + Phenformin (first compound 0.1 µM). Further, the relative viability came out at 0.272 with Fedratinib + Phenformin (first compound 0.3162 µM) and 0.359 with Fedratinib + Phenformin (first compound 1 µM).
